Reference: patent US8362031B2, “Lonidamine analogues and treatment of polycystic kidney disease” (University of Kansas, priority 2004, dated 2013)
“Also recorded” adds a separate entry of the source.

Columns and labels:
HSP90 = molecular target: T1, HSP90 (Mus musculus, UniProt P11499); experiment: Affinity chromatography of cell lysate with biotinylated RC-MC-110, drug specific elution; type: binding; conditions: TM4 sertoli cell (mouse) and ID8 cell lysates, avidin-sepharose column
T1 construct: Wash four 150 mm plates of TM4 cells (sertoli cells) or ID-8 cells (ovarian cancer) once with PBS; endogenous in cells; host or cells: TM4 Sertoli cells (mouse) and ID8 ovarian cancer cells, cell lysate
T1 sequence (P11499 whole entry): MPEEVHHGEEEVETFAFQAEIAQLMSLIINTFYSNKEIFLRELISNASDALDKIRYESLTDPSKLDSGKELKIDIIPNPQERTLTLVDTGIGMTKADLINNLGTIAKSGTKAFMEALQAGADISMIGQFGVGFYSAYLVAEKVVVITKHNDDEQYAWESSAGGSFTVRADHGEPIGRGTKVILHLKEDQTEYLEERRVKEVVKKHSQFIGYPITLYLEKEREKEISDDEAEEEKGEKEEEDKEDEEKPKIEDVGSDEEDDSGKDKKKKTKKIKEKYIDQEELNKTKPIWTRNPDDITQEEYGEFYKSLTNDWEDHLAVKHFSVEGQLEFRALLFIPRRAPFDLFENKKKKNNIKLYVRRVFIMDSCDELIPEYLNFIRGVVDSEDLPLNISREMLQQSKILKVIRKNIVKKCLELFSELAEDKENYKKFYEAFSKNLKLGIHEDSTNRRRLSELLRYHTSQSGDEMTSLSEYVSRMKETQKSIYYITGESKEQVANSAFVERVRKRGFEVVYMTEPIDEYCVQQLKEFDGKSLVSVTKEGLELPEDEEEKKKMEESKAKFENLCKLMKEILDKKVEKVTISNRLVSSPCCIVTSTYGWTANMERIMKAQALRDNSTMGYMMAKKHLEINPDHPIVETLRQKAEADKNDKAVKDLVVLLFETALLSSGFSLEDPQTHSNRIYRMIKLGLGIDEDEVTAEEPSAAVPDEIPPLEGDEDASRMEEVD
Method: To analyze the binding of the compounds of the present invention, the following procedure is used.
2. Wash four 150 mm plates of TM4 cells (sertoli cells) or ID-8 cells (ovarian cancer) once with PBS (20 mM concentration pH 7.5). Add enough volume to trypsinize cells. Aspirate and spin cells for 10 minutes at 4° C. at 250×g. Add enough Lysis buffer to the cells.
5. Remove the cell lysate and apply the sample into a 2 ml avidin-sepharose (tetramer form) column (pre-equilibrated with 50 mM Tris-HCl/0.001% NP-40, pH 7.4) to remove native biotinylated compounds.
6. Take 2.7 ml of pre-cleared cell lysate and incubate the sample with RC-MC-110.
Tube 1: 2.7 ml of pre-cleared lysate plus 150 μl of 1.2 mg/ml biotinylated RC-MC-110+150 μl of DMSO (maintaining the same amount of DMSO in both tubes).
Tube 2: 2.7 ml of pre-cleared lysate plus 150 μl of 1.2 mg/ml of biotinylated RC-MC-110 (RC-MC-150, see structure below), and add 150 μl of 12 mg/ml RC-MC-110 stock. Incubate the sample overnight at […] on a rocking platform (or gentle stirring) with gentle agitation.
7. Load samples on an avidin-sepharose column pre-equilibrated with buffer (50 mM Tris-HCl pH 7.4, 0.1% NP-40=TD buffer). Wash column until background is reached.
8. Wash column with 2.5 ml of 0.6 mg/ml of RC-MC-110 in TD buffer (stock 12 mg/ml) until peak elutes (if any) and stable background. Pool fractions.

male rats = experiment: Fertility trials following oral administration (challenge mating); type: in vivo, rat
Method: The following table illustrates the results of a single oral does of 6 mg/kg of RC-MC-110 orally to male rats. […] The ethyl alcohol was evaporated 10% prior to administration. The “embryos normal” and “embryos abnormal” represents the mean number of embryos per pregnant female. […]
The following table illustrates the results of a single oral does of four different doses of RC-MC-110 orally to male rats.

[1] = Table 9A, seven consecutive daily oral doses of 6 mg/day, week 1
[2] = Table 9A, seven consecutive daily oral doses of 6 mg/day, week 2
[3] = Table 9A, seven consecutive daily oral doses of 6 mg/day, week 3
[4] = Table 9A, seven consecutive daily oral doses of 6 mg/day, week 4
[5] = Table 9A, seven consecutive daily oral doses of 6 mg/day, week 5
[6] = Table 9A, seven consecutive daily oral doses of 6 mg/day, week 6
[7] = Table 9A, seven consecutive daily oral doses of 6 mg/day, week 7
[8] = Table 9A, seven consecutive daily oral doses of 6 mg/day, week 8
[9] = Table 9A, seven consecutive daily oral doses of 6 mg/day, week 9
[10] = Table 9A, seven consecutive daily oral doses of 6 mg/day, week 10
[11] = Table 9A, seven consecutive daily oral doses of 6 mg/day, week 12
[12] = Table 9A, seven consecutive daily oral doses of 6 mg/day, week 13
[13] = Table 9A, seven consecutive daily oral doses of 6 mg/day, week 14
[14] = Table 9A, seven consecutive daily oral doses of 6 mg/day, week 18
[15] = Table 9B, single oral dose of 6 mg/kg, week 1
[16] = Table 9B, single oral dose of 6 mg/kg, week 2
[17] = Table 9B, single oral dose of 6 mg/kg, week 3
[18] = Table 9B, single oral dose of 6 mg/kg, week 4
[19] = Table 9B, single oral dose of 6 mg/kg, week 5
[20] = Table 9B, single oral dose of 6 mg/kg, week 6
[21] = Table 9B, single oral dose of 6 mg/kg, week 7

O=C(O)/C=C/c1nn(Cc2ccc(Cl)cc2Cl)c2cc(C(F)(F)F)ccc12 [RC-MC-110, trans 3-[1-(2,4-dichlorobenzyl)-6-trifluoromethyl-1H-indazol-3-yl]-acrylic acid]
Binding of HSP90 (HSP90): bind heat shock 90 proteins; also recorded: drug specific elution of Hsp90 | Embryos abnormal (mean number per pregnant female) (male rats; [1]): 0.2 | Embryos normal (mean number per pregnant female) (male rats; [1]): 15 | Males fertile (male rats; Table 9A, seven consecutive daily oral doses of 6 mg/day, week 1, 7 males mated): 7 | Embryos abnormal (mean number per pregnant female) (male rats; [2]): 0.3 | Embryos normal (mean number per pregnant female) (male rats; [2]): 13 | Males fertile (male rats; Table 9A, seven consecutive daily oral doses of 6 mg/day, week 2, 7 males mated): 7 | Embryos abnormal (mean number per pregnant female) (male rats; [3]): 0 | Embryos normal (mean number per pregnant female) (male rats; [3]): 7 | Males fertile (male rats; Table 9A, seven consecutive daily oral doses of 6 mg/day, week 3, 7 males mated): 2 | Embryos abnormal (mean number per pregnant female) (male rats; [4]): 0.5 | Embryos normal (mean number per pregnant female) (male rats; [4]): 7 | Males fertile (male rats; Table 9A, seven consecutive daily oral doses of 6 mg/day, week 4, 7 males mated): 3 | Embryos abnormal (mean number per pregnant female) (male rats; [5]): 0 | Embryos normal (mean number per pregnant female) (male rats; [5]): 0 | Males fertile (male rats; Table 9A, seven consecutive daily oral doses of 6 mg/day, week 5, 7 males mated): 0 | Embryos abnormal (mean number per pregnant female) (male rats; [6]): 0 | Embryos normal (mean number per pregnant female) (male rats; [6]): 0 | Males fertile (male rats; Table 9A, seven consecutive daily oral doses of 6 mg/day, week 6, 7 males mated): 0 | Embryos abnormal (mean number per pregnant female) (male rats; [7]): 0 | Embryos normal (mean number per pregnant female) (male rats; [7]): 0 | Males fertile (male rats; Table 9A, seven consecutive daily oral doses of 6 mg/day, week 7, 7 males mated): 0 | Embryos abnormal (mean number per pregnant female) (male rats; [8]): 0 | Embryos normal (mean number per pregnant female) (male rats; [8]): 0 | Males fertile (male rats; Table 9A, seven consecutive daily oral doses of 6 mg/day, week 8, 6 males mated): 0 | Embryos abnormal (mean number per pregnant female) (male rats; [9]): 1 | Embryos normal (mean number per pregnant female) (male rats; [9]): 9 | Males fertile (male rats; Table 9A, seven consecutive daily oral doses of 6 mg/day, week 9, 7 males mated): 1 | Embryos abnormal (mean number per pregnant female) (male rats; [10]): 0 | Embryos normal (mean number per pregnant female) (male rats; [10]): 2 | Males fertile (male rats; Table 9A, seven consecutive daily oral doses of 6 mg/day, week 10, 7 males mated): 1 | Embryos abnormal (mean number per pregnant female) (male rats; [11]): 0.3 | Embryos normal (mean number per pregnant female) (male rats; [11]): 14 | Males fertile (male rats; Table 9A, seven consecutive daily oral doses of 6 mg/day, week 12, 7 males mated): 2 | Embryos abnormal (mean number per pregnant female) (male rats; [12]): 0.3 | Embryos normal (mean number per pregnant female) (male rats; [12]): 15 | Males fertile (male rats; Table 9A, seven consecutive daily oral doses of 6 mg/day, week 13, 7 males mated): 2 | Embryos abnormal (mean number per pregnant female) (male rats; [13]): 0 | Embryos normal (mean number per pregnant female) (male rats; [13]): 14 | Males fertile (male rats; Table 9A, seven consecutive daily oral doses of 6 mg/day, week 14, 7 males mated): 2 | Embryos abnormal (mean number per pregnant female) (male rats; [14]): 0 | Embryos normal (mean number per pregnant female) (male rats; [14]): 14 | Males fertile (male rats; Table 9A, seven consecutive daily oral doses of 6 mg/day, week 18, 7 males mated): 2 | Embryos abnormal (mean number per pregnant female) (male rats; [15]): 0.2 | Embryos normal (mean number per pregnant female) (male rats; [15]): 15 | Males fertile (male rats; Table 9B, single oral dose of 6 mg/kg, week 1, 7 males mated): 7 | Embryos abnormal (mean number per pregnant female) (male rats; [16]): 0.3 | Embryos normal (mean number per pregnant female) (male rats; [16]): 12 | Males fertile (male rats; Table 9B, single oral dose of 6 mg/kg, week 2, 7 males mated): 7 | Embryos abnormal (mean number per pregnant female) (male rats; [17]): 2 | Embryos normal (mean number per pregnant female) (male rats; [17]): 6 | Males fertile (male rats; Table 9B, single oral dose of 6 mg/kg, week 3, 7 males mated): 2 | Embryos abnormal (mean number per pregnant female) (male rats; [18]): 0 | Embryos normal (mean number per pregnant female) (male rats; [18]): 0 | Males fertile (male rats; Table 9B, single oral dose of 6 mg/kg, week 4, 7 males mated): 0 | Embryos abnormal (mean number per pregnant female) (male rats; [19]): 0 | Embryos normal (mean number per pregnant female) (male rats; [19]): 0 | Males fertile (male rats; Table 9B, single oral dose of 6 mg/kg, week 5, 7 males mated): 0 | Embryos abnormal (mean number per pregnant female) (male rats; [20]): 1 | Embryos normal (mean number per pregnant female) (male rats; [20]): 10 | Males fertile (male rats; Table 9B, single oral dose of 6 mg/kg, week 6, 7 males mated): 1 | Embryos abnormal (mean number per pregnant female) (male rats; [21]): 0 | Embryos normal (mean number per pregnant female) (male rats; [21]): 13
